Data set [1] concerns DU-145. Put plainly: Growth inhibition of human DU145 cells at 5 uM after 96 hrs. The format is functional, cell-based.
Data set [2] relates to DU-145. The data set is described as follows: Growth inhibition of human DU145 cells at 10 uM after 96 hrs. The format is functional, cell-based.
The subject of data set [3] is DU-145. The data set is described as follows: Increase in growth inhibition of human DU145 cells in presence of PSA after 96 hrs. The format is functional, cell-based.
Data set [4] in a line: Hydrolysis of prodrug assessed as half life in presence PSA. The format is ADME.

Active and inactive are the calls of the source. The calls are words filed in the database; no cut-off is given here. *1 amine or outer side, *2 acyl side, *3 side chain or, on linkers, in order; H or OH if unused. Where a SMILES comes first, the peptide text is derived from it. The star is where a group is joined. X1 = CC1=C2C[C@H]3[C@@H](CC=C4C[C@@H](O)CC[C@@]43C)[C@@H]2CC[C@]12O[C@@H]1C[C@H](C)CN(*)[C@H]1[C@H]2C; Morpholide = C1CN(*)CCO1; CO = O=C([*:1])[*:2]

Turning to `CC1=C2C[C@H]3[C@@H](CC=C4C[C@@H](O)CC[C@@]43C)[C@@H]2CC[C@]12O[C@@H]1C[C@H](C)CN[C@H]1[C@H]2C`, the outcome in the data set on DU-145 [1] and with DU-145 [2] was Active.
Take `CC1=C2C[C@H]3[C@@H](CC=C4C[C@@H](O)CC[C@@]43C)[C@@H]2CC[C@]12O[C@@H]1C[C@H](C)CN(C(=O)[C@H](CCC(N)=O)NC(=O)[C@H](CC(C)C)NC(=O)[C@H](CCCCN)NC(=O)[C@H](CO)NC(=O)[C@H](CO)NC(=O)[C@H](Cc3c[nH]cn3)NC(=O)N3CCOCC3)[C@H]1[C@H]2C` ({Morpholide-CO}-HSSKLQ-X1): the outcome in the data set with DU-145 [3] was Active. Further, the t1/2 in data set [4] turned out to be 22 h.
As to `CC1=C2C[C@H]3[C@@H](CC=C4C[C@@H](O)CC[C@@]43C)[C@@H]2CC[C@]12O[C@@H]1C[C@H](C)CN(C(=O)[C@H](CCC(N)=O)NC(=O)[C@H](Cc3ccc(O)cc3)NC(=O)[C@H](CCCCN)NC(=O)[C@H](CO)NC(=O)[C@H](CO)NC(=O)N3CCOCC3)[C@H]1[C@H]2C` ({Morpholide-CO}-SSKYQ-X1), in data set [4], the t1/2 is 3.2 h.

The values above are taken from ChEMBL document CHEMBL1143967, “Targeted inhibition of hedgehog signaling by cyclopamine prodrugs for advanced prostate cancer” (Bioorg Med Chem, 2008).
